Common to all, as to experiment: inhibition of tumour cell growth, NCI panel, 48 h
Experiment [1] deals with HCC-2998 colon.
Experiment [2] deals with SNB-75 CNS.
Experiment [3] concerns MOLT-4 leukemia.
Experiment [4] concerns NCI-H226 lung.
Experiment [5] has as its system MDA-MB-435.
The test system of experiment [6] is ACHN renal.
The test system of experiment [7] is SNB-19 CNS.
Experiment [8] relates to SF-268 CNS.
In experiment [9] the test system is HS 578T breast.
In experiment [10] the test system is K-562 leukemia.

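Following 48 hours of exposure in 96-well plates, responses at five concentrations were used to interpolate endpoints linearly. The concentration for 50% growth inhibition is given as GI50. TGI marks complete inhibition of growth.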

Consider `CC1=C([Se]CC(OC(=O)[C@@H](CSSC(C)(C)C)NC(=O)C(C)(C)C)C(=O)NCCCCCC(=O)OCc2ccccc2)C(=O)c2ccccc2C1=O` (some centres undefined), for which the GI50 in experiment [1] was 2200 nM; in experiment [2] it was 1370 nM; in experiment [3], 3.24 µM; in experiment [4], 2360 nM; in [5], 2280 nM; in experiment [6], 2160 nM. For the same compound, the GI50 in experiment [7] is 1090 nM; in [8], 1910 nM; in experiment [9] it was 2180 nM. For the same compound, the TGI in [1] was found to be 4 µM; in experiment [2] it was 2.66 µM; in experiment [3] it was 9.52 µM; in [4], 4.63 µM; in [5] it was 5.55 µM; in experiment [6], 4.94 µM. The figures for the TGI in [7], in experiment [8] and in experiment [9] were 2.56 µM, 3.51 µM and 5.56 µM, respectively.

Consider `CC1(C)CC2=NOS3=C2C(=NO3)C1c1ccccn1` (centres undefined), for which the TGI was above 100 µM in experiment [1]; above 100 µM in [2]; 95.6 µM in [3]; 39 µM in experiment [5]; above 100 µM in experiment [6]; above 100 µM in experiment [7]. Besides, the TGI in experiment [8] is above 100 µM; in experiment [10], 62.8 µM; in experiment [9] it was above 100 µM.

Consider `Cc1ccc(-c2nc3nc(-c4ccc(Cl)cc4)nc(N4CCCNCC4)c3o2)cc1`, for which the GI50 in experiment [1] was 1890 nM; in experiment [2], 1200 nM; in experiment [3], 1.91 µM; in experiment [4], 1780 nM; in experiment [5], 1810 nM; in [6] it was 1710 nM. The GI50 in [7] was 1700 nM; in [8] it was 1920 nM; in experiment [9], 1930 nM. In addition, the TGI amounted to 3.54 µM in experiment [1]; 2.47 µM in experiment [2]; 3.72 µM in experiment [3]; 3.87 µM in [4]; 3.25 µM in experiment [5]; 3.09 µM in experiment [6]. The TGI in experiment [7] worked out at 3.12 µM; in experiment [8], 3.97 µM; in experiment [9], 4.17 µM.

As for `CCC(=O)Nc1ccc2c(c1)CN1C(=O)c3ccccc3C1=N2`, the GI50 in experiment [1] is above 100000 nM; in experiment [2], above 100000 nM; in [3], above 100 µM; in experiment [4] it was above 100000 nM; in experiment [5] it was above 100000 nM; in experiment [6] it was above 100000 nM. In addition, the GI50 in experiment [7], in experiment [8] and in [9] was above 100000 nM in each case. In addition, the TGI in [1], in [2], in [3], in experiment [4], in experiment [5] and in experiment [6] was above 100 µM throughout. Moreover, the TGI in [7], in experiment [8] and in experiment [9] was above 100 µM throughout.

Turning to `CCCCCCCCO/N=C\c1c2c(O)c3c(O)c(C)c4c(c3c1O)C(=O)C(C)(O/C=C\C(OC)C(C)C(OC(C)=O)C(C)C(O)C(C)C(O)C(C)/C=C\C=C(\C)C(=O)N2)O4` (centres undefined), the GI50 in experiment [1] is 2050 nM; in experiment [2], 1660 nM; in experiment [4] it was 2050 nM; in experiment [5], 1430 nM; in [6], 1780 nM; in experiment [7] it was 2420 nM. Also, the figures for the GI50 in [8] and in [9] were 2020 nM and 1070 nM, respectively. For the same compound, the TGI in [1] is 7.03 µM; in experiment [2], 6.97 µM; in [4], 9.71 µM; in experiment [5], 5.9 µM; in experiment [6], 6.58 µM; in experiment [7], 8.93 µM. Further, the values for the TGI in experiment [8] and in experiment [9] were 8.18 µM and 3.1 µM, respectively.

For the compound `COc1cc(/C=C2\C[C@H]3[C@@H]4CC=C5C[C@@H](OC(C)=O)CC[C@]5(C)[C@H]4CC[C@]3(C)[C@H]2OC(C)=O)ccc1OCCCn1ccnc1`, the GI50 was 9470 nM in experiment [1]; 17.1 µM in experiment [3]; 7780 nM in experiment [4]; 10200 nM in experiment [5]; 8490 nM in [6]; 21300 nM in experiment [7]. The results for the GI50 in experiment [8], in experiment [10] and in experiment [9] were 9630 nM, 5.59 µM and 5850 nM, respectively. Also, the TGI is 17.7 µM in experiment [1]; above 50 µM in experiment [3]; 24.6 µM in experiment [4]; 22.1 µM in experiment [5]; 15.9 µM in experiment [6]; above 50 µM in [7]. The TGI in [8] came to 21.6 µM; in experiment [10] it was 19.7 µM; in [9] it was 16.5 µM.

`Cc1cccc(Oc2ccc(Nc3ncnc4ccc(NC(=O)CN5CCN(C)CC5)cc34)cc2Cl)c1`: the GI50 in [1] is 1580 nM; in experiment [2] it was 1440 nM; in experiment [5] it was 1590 nM; in [6], 655 nM; in experiment [7], 1950 nM; in [8] it was 1460 nM. The GI50 in [10] was 1.61 µM; in experiment [9], 1770 nM. The TGI in experiment [1] was determined as 3.04 µM; in [2], 2.81 µM; in experiment [5], 2.99 µM; in experiment [6], 1.96 µM; in experiment [7], 4.79 µM; in experiment [8] it was 3.16 µM. The TGI in [10] was 4.33 µM; in experiment [9] it was 4.28 µM.

Take `C/C=C/C/C=C/CCC(=O)C1OC1C(N)=O` (centres undefined): the TGI was determined as 31.1 µM in experiment [1]; 27.8 µM in experiment [2]; 51.7 µM in experiment [3]; 28.3 µM in experiment [5]; 28.5 µM in experiment [6]; 32.1 µM in experiment [7]. Further, the TGI in experiment [8] worked out at 26.9 µM; in experiment [10], 36.8 µM; in experiment [9] it was 76.2 µM.

`CC(=O)NC(Cc1c[nH]c2ccccc12)C(=O)O` (centres undefined): the TGI in experiment [4], in experiment [5], in experiment [6], in experiment [7], in experiment [8] and in [10] was above 100 µM each time. Besides, the TGI in experiment [9] is above 100 µM.

The values above are taken from PubChem BioAssay (NCI).
